Source: patent US9079891B2, “Compounds that modulate intracellular calcium” (CALCIMEDICA, INC., priority 2010, dated 2015)
Like-named read-outs stand apart in the source and are kept apart here.

Columns and labels:
[1] = target: T1, recombinant human STIM1 and Orai1 (Homo sapiens, UniProt Q96D31); test: Fluorescence-based assay of store-operated calcium entry in Orai1/STIM1 stable cells (FLIPR); type: cell-based; settings: for IC50: HEK-293 cells stably expressing human Orai1/STIM1, Fluo-4, Peak-Basal signal, read-out: FLIPR_CRAC: 9 point CRC: O1S1_JR251: IC50: Peak_over_Basal; for FLIPR_CRAC: 9 point CRC: O1S1_JR251: efficacy: printed in the IC50 column in place of a class symbol
T1 construct: c-myc (C); expressed in transfected cells; host or cells: HEK-293 cells stably expressing human STIM1 and human Orai1
Procedure: A. Fluorescence-Based Assay of Store-Operated Calcium Entry in Orai1/Stim1 Stable Cells.
Cells stably expressing recombinant human STIM1 and Orai1 are generated by transfecting a human Orai1 expression plasmid (pcDNA3.1-Orai1-cmyc) into HEK-293 cells stably overexpressing human STIM1 (Roos et al. 2005 JCB 169(3): 435-445). Colonies of cells stably expressing both STIM1 and Orai1 proteins are selected and then subcloned by limiting dilution. Cells were cultured at 37° C./6% CO2 in complete medium with 10% FBS and appropriate selection markers.
The day prior to performing the assay Orai1/STIM1 stable cells are plated in 50 μL of complete medium at 90-95% confluence in a 384 well plate. Cells are grown at 37° C./6% CO2 overnight. On the day of the assay, 1.5 μM fluo-4-AM (Invitrogen) in complete medium is added to the cells, which are then incubated for 1 hour at RT. Cells are washed once in Ca^2+-free HBSS (Hank's buffered saline solution) and 35 μl of Ca^2+-free HBSS is added to each well. Test compounds are added to wells in a 10 μL Ca^2+-free HBSS solution, prepared at 4.5× the desired final concentration, and incubated for 30 minutes at RT. The initial baseline fluorescence signal is then measured with a FLIPR^384 (Molecular Devices) plate reader. Calcium entry is initiated by adding 5 μl of 10×CaCl2 (10 mM) in HBSS, and changes in cellular fluorescence are measured with the FLIPR^384 plate reader. In each well, the magnitude of the fluorescence signal as a result of calcium entry into the cell is determined by calculating the difference between the peak fluorescence signal measured after calcium addition and the initial baseline fluorescence signal (designated Peak-Basal). IC50 values are typically calculated as the concentration that inhibited 50% of the Peak-Basal signal.

RBL-2H3 cells = test: Fluorescence-based assay of store-operated calcium entry in RBL-2H3 cells (FLIPR, thapsigargin); type: cell-based, rat; settings: Fluo-4, Upslope 0-7 sec, read-out: FLIPR_CRAC: 9 pt CRC - Fluo4_TG-D: RBL-2H3: IC50: Upslope 0-7 sec
Procedure: B. Fluorescence-Based Assay of Store-Operated Calcium Entry in RBL-2H3 Cells.
RBL-2H3 cells are obtained from ATCC and maintained in complete medium with 10% FBS at 37° C./6% CO2.
The day prior to performing the assay, RBL-2H3 cells are plated in 50 μl of complete medium in a 384 well plate. Cells are grown at 37° C./6% CO2 overnight and grow to 50-60% confluence by the next day. On the assay day, 1.5 μM Fluo-4-AM dye (Invitrogen) in complete medium is added and incubated for 1 hour at RT. Cells are washed twice in Ca^2+-free HBSS buffer and 35 μl Ca^2+-free HBSS buffer is added to each well. 10 μl of a test compound prepared in a Ca^2+-free HBSS solution at 4.5× of the desired concentration is added to a well and incubated for 5 minutes at RT. 10 μl of thapsigargin prepared in a Ca^2+-free HBSS solution at 5.5× of the desired concentration (5.5 uM) is added to each well and incubated for an additional 25 minutes. The initial baseline fluorescence signal is measured with a FLIPR^384 (Molecular Devices) plate reader. 5 μl of 12× calcium in HBSS (12 mM) is added and changes in cellular fluorescence are measured with the FLIPR^384 plate reader. In each well, the change in the fluorescent signal as a function of time due to calcium entry into the cell is determined by calculating the difference between the fluorescent signal measured 7 seconds after calcium addition and the initial baseline fluorescence signal at time zero (t=0). This parameter is designated Upslope. The IC50 value is calculated as the concentration at which 50% of the Upslope is inhibited.

T1 sequence (Q96D31 whole entry): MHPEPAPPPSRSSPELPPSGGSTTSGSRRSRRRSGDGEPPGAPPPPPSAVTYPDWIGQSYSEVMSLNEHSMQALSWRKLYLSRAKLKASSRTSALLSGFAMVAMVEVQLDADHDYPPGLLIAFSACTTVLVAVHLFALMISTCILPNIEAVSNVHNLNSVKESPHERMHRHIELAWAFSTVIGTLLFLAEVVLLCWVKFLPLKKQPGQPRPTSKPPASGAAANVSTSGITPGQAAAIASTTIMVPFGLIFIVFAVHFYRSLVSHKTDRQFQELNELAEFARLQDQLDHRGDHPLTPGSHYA

Structure (SMILES)	IC50 [1] [µM]	IC50 (RBL-2H3 cells; Rattus norvegicus) [µM]	FLIPR_CRAC: 9 point CRC: O1S1_JR251: efficacy [1] [% efficacy]	IC50 (RBL-2H3 cells) [µM]
Cn1nc(C(F)(F)F)cc1-c1cnc(NC(=O)c2c(F)cncc2F)s1 [Example 78]	> 1.2	0.6 to 1.2	–	–
Cn1nc(C(F)(F)F)cc1-c1ccc(NC(=O)c2ccncc2F)s1 [Example 75, (3-fluoro(4-pyridyl))-N-{5-[1-methyl-3-(trifluoromethyl)pyrazol-5-yl](2-thienyl)}carboxamide]	–	> 1.2	<50	–
Cn1nc(C(F)(F)F)cc1-c1sc(C(=O)Nc2c(F)cccc2F)cc1N [Example 30, {4-Amino-5-[1-methyl-3-(trifluoromethyl)pyrazol-5-yl](2-thienyl)}-N-(2,6-difluorophenyl)carboxamide]	> 1.2	–	–	–
Cc1nc(-c2cc(-c3cnc(NC(=O)c4ccccc4Cl)s3)n(C)n2)no1 [Example 18, (2-chlorophenyl)-N-{5-[1-methyl-3-(5-methyl(1,2,4,-oxadiazol-3-yl))pyrazol-5-yl](1,3-thiazol-2-yl)}carboxamide]	> 1.2	–	–	–
Cc1cc2c(cc1-c1cnc(NC(=O)c3c(F)cncc3F)s1)OC(F)(F)O2 [Example 81, (3,5-difluoro(4-pyridyl))-N-[5-(2,2-difluoro-6-methylbenzo[d]1,3-dioxolen-5-yl)(1,3-thiazol-2-yl)]carboxamide]	> 1.2	< 0.6	–	–
Cn1nc(C(F)(F)F)cc1-c1cnc(NC(=O)c2ccc(Cl)cc2)s1 [Example 73]	0.6 to 1.2	0.6 to 1.2	–	–
Cn1nc(-c2nccs2)cc1-c1ccc(C(=O)Nc2ncccc2F)s1 [Example 52]	0.6 to 1.2	0.6 to 1.2	–	–
Cc1cc2cn(C)nc2cc1-c1ccc(C(=O)Nc2ccccc2Cl)s1 [Example 14]	0.6 to 1.2	< 0.6	–	–
Cc1nc(-c2cc(-c3ccc(C(=O)Nc4c(F)cccc4F)s3)n(C)n2)no1 [Example 16, N-(2,6-difluorophenyl){5-[1-methyl-3-(5-methyl(1,2,4-oxadiazol-3-yl))pyrazol-5-yl](2-thienyl)}carboxamide]	0.6 to 1.2	–	–	–
Cc1cccnc1C(=O)Nc1ncc(-c2cc(C(F)(F)F)nn2C)s1 [Example 26, (3-methyl(2-pyridyl))-N-{5-[1-methyl-3-(trifluoromethyl)pyrazol-5-yl](1,3-thiazol-2-yl)}carboxamide]	–	–	<50	< 0.6
Cn1nc(-c2cccs2)cc1-c1ccc(C(=O)Nc2c(F)cccc2F)s1 [Example 63, N-(2,6-difluorophenyl)[5-(1-methyl-3-(2-thienyl)pyrazol-5-yl](2-thienyl)]carboxamide]	> 1.2	–	–	–
Cn1nc(C(F)(F)F)cc1-c1ncc(NC(=O)c2ccccc2Cl)s1 [Example 29, (2-chlorophenyl)-N-{2-[1-methyl-3-(trifluoromethyl)pyrazol-5-yl](1,3-thiazol-5-yl)}carboxamide]	> 1.2	> 1.2	–	–
CC(C)n1nc(C(F)(F)F)cc1-c1cnc(NC(=O)c2ccccc2Cl)s1 [Example 25, (2-chlorophenyl)-N-{5-[1-(methylethyl)-3-(trifluoromethyl)pyrazol-5-yl](1,3-thiazol-2-yl)}carboxamide]	> 1.2	0.6 to 1.2	–	–
Cn1nc(C(F)(F)F)cc1-c1ccc(NC(=O)c2c(F)cncc2F)s1 [Example 77, (3,5-difluoro(4-pyridyl))-N-{5-[1-methyl-3-(trifluoromethyl)pyrazol-5-yl](2-thienyl)}carboxamide]	0.6 to 1.2	< 0.6	–	–
Cc1nc(-c2cc(-c3ccc(C(=O)Nc4ccccc4F)s3)n(C)n2)no1 [Example 17, N-(2-fluorophenyl){5-[1-methyl-3-(5-methyl(1,2,4-oxadiazol-3-yl))pyrazol-5-yl](2-thienyl)}carboxamide]	0.6 to 1.2	< 0.6	–	–
Cn1nc(-c2cccs2)cc1-c1ccc(C(=O)Nc2ccccc2Cl)s1 [Example 65]	> 1.2	–	–	–
Cc1cc2cn(C)nc2cc1-c1ccc(C(=O)Nc2c(F)cccc2F)s1 [Example 15]	0.6 to 1.2	–	–	–
